Laboratory results published in patent USRE47689E1, “Compounds for treating spinal muscular atrophy” (PTC Therapeutics, Inc., priority 2011, dated 2019).
Like-named read-outs stand apart in the source and are kept apart here.

Experiments:
[1] = tested on: SMN2 minigene (full length SMN2 minigene mRNA containing SMN2 exon 7); experiment: SMN2 minigene mRNA splicing RT-qPCR assay in cultured cells; type: cell-based, human; conditions: Homo sapiens, HEK293-H, read-out: EC1.5x for production of full length SMN2 mRNA
Procedure, shortened: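 Lysates → one-step RT-qPCR, minigene-specific primers (0.4 μM final) + GAPDH multiplex, 40 cycles. FL/GAPDH vs DMSO; EC1.5x, star-binned.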

[2] = tested on: Smn protein; experiment: Smn protein assay in cultured cells (SMN HTRF); type: cell-based, human; conditions: 48 hours; for EC1.5x (concentration giving 1.5-fold Smn protein increase): SMA Type 1 patient fibroblast cells (GM03813), 7-point concentration curve, SMN HTRF, concentration producing 1.5 times Smn protein vs DMSO vehicle control, read-out: EC1.5x for Smn protein expression; for maximum fold (Fold) increase of Smn protein: SMA patient fibroblast cells, 7-point concentration data, fold increase relative to vehicle control (SMN HTRF)
Procedure, shortened: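 Smn in SMA fibroblast lysates, measured by anti-SMN HTRF after 48 h compound exposure; EC1.5x from fold change over vehicle.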

[3] = HEK293H cells stably transfected with SMN2-A minigene, 24 hours, 7-point concentration curve, 1.5-fold relative to vehicle-treated cells

melting point | Compound | EC (1.5-fold) [1, 3] [µM] | EC1.5x (concentration giving 1.5-fold Smn protein increase) [2] [nM] | maximum fold (Fold) increase of Smn protein [2] | EC (1.5-fold) ([1]; 24 h) [µM]
173 to 176 °C | Cc1cn2cc(-c3cc4ccc(N5CCN(C(C)C)CC5)cc4oc3=O)cc2c(C)n1 [Compound 709, 3-(1,3-dimethylpyrrolo[1,2-a]pyrazin-7-yl)-7-[4-(propan-2-yl)piperazin-1-yl]-2H-chromen-2-one] | < 0.1 | 300 to 1000 | **** (fold increase between >1.5 and ≤1.65) | 
175 to 180 °C | Cc1ccc2nc(-c3cc4ccc(N5CCCN(C)CC5)cc4oc3=O)cn2c1 [Compound 142, 7-(4-methyl-1,4-diazepan-1-yl)-3-(6-methylimidazo[1,2-a]pyridin-2-yl)-2H-chromen-2-one] | 1 to 3 | 300 to 1000 | **** (fold increase between >1.5 and ≤1.65) | 
225 to 227 °C | CN1CCCN(c2ccc3cc(-c4cn5cnccc5n4)c(=O)oc3c2)CC1 [Compound 460, 3-(imidazo[1,2-c]pyrimidin-2-yl)-7-(4-methyl-1,4-diazepan-1-yl)-2H-chromen-2-one] | 0.1 to 0.3 | 3000 to 10000 | *** (fold increase between >1.35 and ≤1.5) | 
250 to 256 °C | Cc1cn2cc(-c3cc4ccc(NC5CNC5)cc4oc3=O)nc2c(C)n1 [Compound 619, 7-(azetidin-3-ylamino)-3-(6,8-dimethylimidazo[1,2-a]pyrazin-2-yl)-2H-chromen-2-one] | < 0.1 | < 300 | **** (fold increase between >1.5 and ≤1.65) | 
200 to 207 °C | Cc1cn2cc(-c3cc4ccc(N[C@@H]5CCN(C(C)C)C5)cc4oc3=O)nc2c(C)n1 [Compound 733, 3-(6,8-dimethylimidazo[1,2-a]pyrazin-2-yl)-7-{[(3R)-1-(propan-2-yl)pyrrolidin-3-yl]amino}-2H-chromen-2-one] | < 0.1 |  | *** (fold increase between >1.35 and ≤1.5) | 
320 °C (dec.) | Cl.O=c1oc2cc(N3CCNCC3)ccc2cc1-c1nc2cccc(Cl)c2s1 [Compound 6, 3-(7-chloro-1,3-benzothiazol-2-yl)-7-(piperazin-1-yl)-2H-chromen-2-one hydrochloride] | 1 to 3 |  | * (maximum fold increase of ≤1.2) | 
240 to 245 °C | Cc1cn2cc(-c3cc4ccc(N5CCN6CCC[C@@H]6C5)cc4oc3=O)nc2cn1 [Compound 625, 7-[(8aR)-hexahydropyrrolo[1,2-a]pyrazin-2(1H)-yl]-3-(6-methylimidazo[1,2-a]pyrazin-2-yl)-2H-chromen-2-one] | < 0.1 | 300 to 1000 | *** (fold increase between >1.35 and ≤1.5) | 
233 to 237 °C | C[C@@H]1CN(c2ccc3cc(-c4cn5ccsc5n4)c(=O)oc3c2)CCN1 [Compound 204, 3-(imidazo[2,1-b][1,3]thiazol-6-yl)-7-[(3R)-3-methylpiperazin-1-yl]-2H-chromen-2-one] | 0.1 to 0.3 |  | *** (fold increase between >1.35 and ≤1.5) | 
115 to 118 °C | Cc1cn2cc(-c3cc4ccc(N5CCCN(C(C)C)CC5)cc4oc3=O)cc2c(C)n1 [Compound 754, 3-(1,3-dimethylpyrrolo[1,2-a]pyrazin-7-yl)-7-[4-(propan-2-yl)-1,4-diazepan-1-yl]-2H-chromen-2-one] | < 0.1 |  | *** (fold increase between >1.35 and ≤1.5) | 
134 to 140 °C | COc1ccc(-c2cc3c(F)cc(N4CCCN(C)CC4)cc3oc2=O)cc1OC [Compound 406, 3-(3,4-dimethoxyphenyl)-5-fluoro-7-(4-methyl-1,4-diazepan-1-yl)-2H-chromen-2-one] | 3 to 30 |  | * (maximum fold increase of ≤1.2) | 
246 to 252 °C | Cc1cn2cc(-c3cc4ccc(N5CCN(CCO)CC5)cc4oc3=O)nc2cn1 [Compound 837, 7-[4-(2-hydroxyethyl)piperazin-1-yl]-3-(6-methylimidazo[1,2-a]pyrazin-2-yl)-2H-chromen-2-one] | < 0.1 | < 300 | ***** (fold increase >1.65) | 

Continued, molecule first:

Compound | melting point | EC (1.5-fold) [1, 3] [µM] | EC1.5x (concentration giving 1.5-fold Smn protein increase) [2] [nM] | maximum fold (Fold) increase of Smn protein [2] | EC (1.5-fold) ([1]; 24 h) [µM]
Cc1cn2cc(-c3cc4ccc(N5C[C@@H](C)N[C@@H](C)C5)cc4oc3=O)cc2cn1 [Compound 584, 7-[(3R,5S)-3,5-dimethylpiperazin-1-yl]-3-(3-methylpyrrolo[1,2-a]pyrazin-7-yl)-2H-chromen-2-one] | 172 to 174 °C | < 0.1 | < 300 | ***** (fold increase >1.65) | 
C[C@H]1CN(c2ccc3cc(-c4ccc5c(c4)OCO5)c(=O)oc3c2)CCN1 [Compound 489, 3-(1,3-benzodioxol-5-yl)-7-[(3S)-3-methylpiperazin-1-yl]-2H-chromen-2-one] | 134 to 136 °C | 3 to 30 |  | * (maximum fold increase of ≤1.2) | 
CCN1CCC(c2ccc3cc(-c4cn5cc(C)nc(C)c5n4)c(=O)oc3c2)CC1 [Compound 749, 3-(6,8-dimethylimidazo[1,2-a]pyrazin-2-yl)-7-(1-ethylpiperidin-4-yl)-2H-chromen-2-one] | 218 to 223 °C | < 0.1 | < 300 | ***** (fold increase >1.65) | 
CN1CCCN(c2ccc3cc(-c4cn5cc(Cl)ccc5n4)c(=O)oc3c2)CC1 [Compound 92, 3-(6-chloroimidazo[1,2-a]pyridin-2-yl)-7-(4-methyl-1,4-diazepan-1-yl)-2H-chromen-2-one] | 186 to 189 °C | 1 to 3 |  | *** (fold increase between >1.35 and ≤1.5) | 
Cc1ccn2cc(-c3cc4ccc(N5CCCNCC5)cc4oc3=O)nc2n1 [Compound 230, 7-(1,4-diazepan-1-yl)-3-(7-methylimidazo[1,2-a]pyrimidin-2-yl)-2H-chromen-2-one] | 286 to 288 °C | 0.3 to 1 |  | *** (fold increase between >1.35 and ≤1.5) | 
O=c1oc2cc(N3CCNCC3)c(F)cc2cc1-c1nc2ccccc2s1 [Compound 157, 3-(1,3-benzothiazol-2-yl)-6-fluoro-7-(piperazin-1-yl)-2H-chromen-2-one] | 255 to 260 °C |  |  | * (maximum fold increase of ≤1.2) | 0.1 to 0.3
Cc1csc(-c2cc3ccc(N4CCCNCC4)cc3oc2=O)n1 [Compound 284, 7-(1,4-diazepan-1-yl)-3-(4-methyl-1,3-thiazol-2-yl)-2H-chromen-2-one] | 195 to 203 °C | 1 to 3 |  | * (maximum fold increase of ≤1.2) | 
Cc1csc2nc(-c3cc4ccc(N5CCCN(C)CC5)cc4oc3=O)cn12 [Compound 179, 7-(4-methyl-1,4-diazepan-1-yl)-3-(3-methylimidazo[2,1-b][1,3]thiazol-6-yl)-2H-chromen-2-one] | 182 to 185 °C | 1 to 3 |  | *** (fold increase between >1.35 and ≤1.5) | 
